This passage reports IC50 results from patent US20060106014A1, “Methods for treating diabetes” (priority 2004, published 2006).

For test [1], the target named is T1, 5-lipoxygenase (Homo sapiens, UniProt P09917).
T1 sequence (P09917 1-674): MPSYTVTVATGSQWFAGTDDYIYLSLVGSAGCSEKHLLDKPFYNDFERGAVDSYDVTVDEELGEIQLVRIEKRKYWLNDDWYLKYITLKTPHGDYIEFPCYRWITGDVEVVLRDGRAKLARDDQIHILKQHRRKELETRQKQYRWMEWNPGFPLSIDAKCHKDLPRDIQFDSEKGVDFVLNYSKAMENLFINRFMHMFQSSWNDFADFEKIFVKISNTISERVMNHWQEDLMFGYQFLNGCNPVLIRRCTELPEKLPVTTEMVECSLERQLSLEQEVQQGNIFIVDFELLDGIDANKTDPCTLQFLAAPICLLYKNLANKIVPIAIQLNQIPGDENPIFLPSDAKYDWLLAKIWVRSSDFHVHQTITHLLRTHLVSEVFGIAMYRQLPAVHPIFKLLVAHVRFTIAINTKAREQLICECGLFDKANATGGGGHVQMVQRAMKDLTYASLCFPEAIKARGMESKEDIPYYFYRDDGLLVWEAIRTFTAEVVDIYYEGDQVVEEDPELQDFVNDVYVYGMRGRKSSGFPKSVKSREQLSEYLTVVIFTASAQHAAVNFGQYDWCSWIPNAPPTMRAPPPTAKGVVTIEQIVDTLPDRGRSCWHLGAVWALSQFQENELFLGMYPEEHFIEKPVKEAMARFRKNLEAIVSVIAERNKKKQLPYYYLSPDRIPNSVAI
Put plainly: 5-Lipoxygenase Enzyme Assay (colorimetric, ferric oxidation of xylenol orange). The class given is biochemical. Further details: purchased Cayman 60402. The note with it: read-out: in vitro IC50 value in a 5-LO enzyme assay. On the procedure: This procedure was used for measuring the enzymatic activity of human recombinant 5-lipoxygenase using a colorimetric method based on the ferric oxidation of xylenol orange.
(§1) The test compound and/or vehicle was added to 0.5 μL 5-lipoxygenase in 50 mM Tris-HCl buffer, pH 7.4. The reaction was initiated by addition of 70 μM arachidonic acid in Tris-HCl buffer, pH 7.4, and terminated after a 10 minute incubation at room temperature by addition of FOX reagent (25 mM sulphuric acid, 100 μM xylenol orange, 100 μM iron (II) sulphate, methanol:water 9:1). The yellow color of acidified xylenol orange was converted to a blue color by the lipid hydroperoxide-mediated oxidation of Fe^2+ ions and the interaction of the resulting Fe^3+ ions with the dye. The complex was allowed to form during a 1 hour incubation at room temperature with shaking. Absorbance of the Fe^3+ complex was then measured at 620 nm using a spectrophotometer. Negative controls contained enzyme during the incubation step but substrate was not added until after the FOX reagent.

In test [2] the target is T2, porcine leukocyte 12/15-lipoxygenase (Sus scrofa, UniProt P16469).
T2 construct: purchased Cayman 60300
T2 sequence (P16469 1-663): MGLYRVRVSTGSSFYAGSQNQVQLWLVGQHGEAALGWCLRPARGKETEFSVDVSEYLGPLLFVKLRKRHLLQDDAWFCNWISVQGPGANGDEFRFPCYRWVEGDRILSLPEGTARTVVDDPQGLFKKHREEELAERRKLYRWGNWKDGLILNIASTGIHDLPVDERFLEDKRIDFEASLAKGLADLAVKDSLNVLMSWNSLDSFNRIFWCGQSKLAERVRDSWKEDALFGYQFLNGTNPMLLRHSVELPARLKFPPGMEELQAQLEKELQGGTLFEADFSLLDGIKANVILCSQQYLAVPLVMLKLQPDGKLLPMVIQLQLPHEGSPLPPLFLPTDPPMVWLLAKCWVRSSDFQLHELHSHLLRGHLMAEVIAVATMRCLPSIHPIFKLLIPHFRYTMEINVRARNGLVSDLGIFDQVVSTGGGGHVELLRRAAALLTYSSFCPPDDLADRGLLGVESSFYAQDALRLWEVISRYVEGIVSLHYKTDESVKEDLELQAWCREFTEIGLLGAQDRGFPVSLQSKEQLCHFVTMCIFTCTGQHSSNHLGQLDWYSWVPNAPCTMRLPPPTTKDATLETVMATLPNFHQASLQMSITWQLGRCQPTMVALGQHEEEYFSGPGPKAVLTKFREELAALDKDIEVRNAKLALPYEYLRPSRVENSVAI
Put plainly: 12/15-Lipoxygenase Enzyme Assay (colorimetric, ferric oxidation of xylenol orange). The class given is biochemical. The conditions noted are these: read-out: in vitro IC50 value in a 12/15-LO enzyme assay. The protocol: This procedure was used for measuring the enzymatic activity of porcine leukocyte 12/15-lipoxygenase using a colorimetric method based on the ferric oxidation of xylenol orange.
as §1, with “vehicle were” for “vehicle was”, “to 1.3” for “to 0.5”, “μL 12/15-lipoxygenase” for “μL 5-lipoxygenase”, “spectrophotometer.” for “spectrophotometer. Negative controls contained enzyme during the incubation step but substrate was not added until after the FOX reagent.”
Negative controls contained enzyme during the incubation step but substrate was not added until after the FOX reagent.

As for `COCOc1ccc(C=Cc2ccc(C(F)(F)F)cc2)cc1OCOC` [1,2-bis-methoxymethoxy-4-[2-(4-trifluoromethyl-phenyl)-vinyl]-benzene], the IC50 in test [1] and in test [2] was under 5 µM in each case.

`Cc1c(O)c(C)c(C(F)(F)F)c2c1CCC(C)(C)O2` [2,2,5,7-tetramethyl-8-(trifluoromethyl)chroman-6-ol]: the IC50 in test [1] and in test [2] was under 5 µM in each case.

Turning to `Cc1c(O)c(CCC(C)C)c(C)c2c1CCC(C)(C)O2` [2,2,5,8-tetramethyl-7-(3-methyl-butyl)-chroman-6-ol], the IC50 in test [1] and in test [2] was under 5 µM each time.

Regarding `CC1(C)CCc2cc(O)c3cccc(O)c3c2O1` [2,2-dimethyl-3,4-dihydro-2H-benzo[h]chromene-6,10-diol], the IC50 in test [1] and in test [2] was under 5 µM each time.

Take `Cc1c(C)c2c(c(C)c1O)CCC(C)(c1cccs1)O2` (centres unmarked) [2,5,7,8-tetramethyl-2-(thiophen-2-yl)chroman-6-ol]: the IC50 in test [1] and in test [2] was under 5 µM each time.

Consider `Cc1c(C)c2c(c(C)c1O)CCC(C)(C=Cc1ccccc1)O2` (centres unmarked) [2,5,7,8-tetramethyl-2-styrylchroman-6-ol], for which the IC50 in test [1] and in test [2] was under 5 µM each time.

With `Cc1cc(C=Cc2ccc([N+](=O)[O-])cc2)cc(C)c1O` [2,6-dimethyl-4-[2-(4-nitro-phenyl)-vinyl]-phenol], the IC50 in test [1] and in test [2] was under 5 µM throughout.

With `Cc1c(O)cc2c(c1C)OC(C)(CCCl)CC2` (centres unmarked) [2-(2-chloro-ethyl)-2,7,8-trimethyl-chroman-6-ol], the IC50 in test [1] and in test [2] was under 5 µM throughout.

With `Cc1c(C)c2c(c(C)c1O)CCC(C)(c1cc(F)c(O)c(F)c1)O2` (centres unmarked) [2-(3,5-difluoro-4-hydroxyphenyl)-2,5,7,8-tetramethylchroman-6-ol], the IC50 in test [1] and in test [2] was under 5 µM each time.

For `Oc1ccc(C=Cc2ccc(O)c(O)c2)c(O)c1` [4-(2,4-dihydroxystyryl)benzene-1,2-diol], the IC50 in test [1] and in test [2] was under 5 µM in each case.

Take `N#Cc1ccc(CCc2cc(O)c(O)c(O)c2)cc1` [4-(3,4,5-trihydroxyphenethyl)benzonitrile]: the IC50 in test [1] and in test [2] was under 5 µM each time.

Turning to `N#Cc1ccc(C=Cc2ccc(O)c(O)c2O)cc1` [4-[2-(2,3,4-trihydroxy-phenyl)-vinyl]-benzonitrile], the IC50 in test [1] and in test [2] was under 5 µM throughout.

On to `COC(=O)c1ccc(C=Cc2ccc(O)c(O)c2)cc1` [4-[2-(3,4-dihydroxy-phenyl)-vinyl]-benzoic acid methyl ester], for which the IC50 in test [1] and in test [2] was under 5 µM in each case.

Consider `Oc1ccc(C=Cc2ccc(Br)cc2)cc1O` [4-[2-(4-bromo-phenyl)-vinyl]-benzene-1,2-diol], for which the IC50 in test [1] and in test [2] was under 5 µM each time.

As for `O=[N+]([O-])c1ccc(C=Cc2ccc(O)c(O)c2)cc1` [4-[2-(4-nitro-phenyl)-vinyl]-benzene-1,2-diol], the IC50 in test [1] and in test [2] was under 5 µM in each case.

On to `COCOc1ccc(C=Cc2ccc(C(C)(C)C)cc2)cc1OCOC` [4-[2-(4-tert-Butyl-phenyl)-vinyl]-1,2-bis-methoxymethoxy-benzene], for which the IC50 in test [1] and in test [2] was under 5 µM in each case.

Take `COC(=O)c1ccc(C=Cc2ccc(O)c(O)c2CC=C(C)C)cc1` [4-{2-[3,4-dihydroxy-2-(3-methyl-but-2-enyl)-phenyl]-vinyl}benzoic acid methyl ester]: the IC50 in test [1] and in test [2] was under 5 µM in each case.

`O=S(=O)(c1ccc(C=Cc2ccc(O)c(O)c2)cc1)N1CCCCC1` [4-{2-[4-(piperidine-1-sulfonyl)-phenyl]-vinyl}benzene-1,2-diol]: the IC50 in test [1] and in test [2] was under 5 µM throughout.

Turning to `CC(C)=CCc1cc(C=Cc2ccc(N(C)C)cc2)cc(O)c1O` [5-(4-(dimethylamino)styryl)-3-(3-methylbut-2-enyl)benzene-1,2-diol], the IC50 in test [1] and in test [2] was under 5 µM each time.
